Laboratory results from US20210247386A1, “A DEVICE AND METHOD FOR DETERMINING CELL INDENTATION ACTIVITY” (TECHNION RESEARCH & DEVELOPMENT FOUNDATION LIMITED, priority 2018, published 2021).
Entries after “also recorded” stand apart in the source; their conditions may differ.

Columns and labels:
breast cancer cell lines = assay: Gel indentation assay of breast cancer cell lines on PAM gel after Taxol treatment; type: cell-based, human; details: Taxol 25 μM for 1-2 hr, PAM gel with Young's modulus 2.4 kPa, versus untreated cells
From the text: (§1) The inventors used various commercially- or otherwise-available, human, epithelial breast and pancreatic cancer and benign cell lines (all from ATCC, Manassas, Va.). For breast cancer cells, the inventors used three cell lines: high metastatic potential (MP, MDA-MB-231) and low MP (MDA-MB-468) breast cancer cells that had been collected from lung metastases, and benign fibrocystic cells (MCF-10A) as control. In addition, the inventors used a high MP breast cancer LM2-4 cell-line that was developed by collecting twice metastasized cells from the human MDA-MB-231 cell line after being seeded in mice. […]
(§2) The inventors seeded 3×10^5 cells on each gel within the respective media, resulting in an average of 25±5 cells per field-of-view (area of 0.016 mm^2). […] The focal depth of each image was recorded independently during the experiment, following manual focusing, using an automated, computer-controlled microscope stage. […]
(§3) At each measurement time-point, locations on the gel were randomly chosen and at least 3 images were taken: (i) a DIC image of the cells on the gel, (ii) a fluorescence image of the particles embedded at the focal plane of the gel surface, and (iii) a series of fluorescence images at the lowest focal depth where particles were observed, to identify each indenting cells' depth. […]

[1] = test system: pancreatic cancer cell lines; assay: Gel indentation assay of pancreatic cancer cell lines on PAM gel after Taxol treatment; type: cell-based, human; details: Taxol 25 μM for 1-2 hr, PAM gel with Young's modulus 2.4 kPa, versus untreated cells
From the text: as §1, §2, §3

CC(=O)O[C@H]1C(=O)[C@@]2(C)[C@H]([C@H](OC(=O)c3ccccc3)[C@]3(O)C[C@H](OC(=O)[C@H](O)[C@@H](NC(=O)c4ccccc4)c4ccccc4)C(C)=C1C3(C)C)[C@]1(OC(C)=O)CO[C@@H]1C[C@@H]2O [Taxol, Paclitaxel]
reduction; also recorded: reduced: attained indentation depths (breast cancer cell lines) | percentage of indenting cells (breast cancer cell lines) | attained indentation depths [1] | percentage of indenting cells [1]
